Entries after “also recorded” stand apart in the source; their conditions may differ.

For series [1] the following is noted: cited from earlier work.
For series [2], the system named is platelets (platelet cyclooxygenase acylation). Briefly: Platelet washing study (ADGS). The format is cell-based, human. To be noted: platelet-rich plasma pretreated with drug at 37° C.; 200 μM arachidonic acid; before/after two-fold washing. An excerpt:
It is generally accepted that aspirin inhibits platelet cyclooxygenase through an irreversible acetylation process. In separate experiments, the platelet acylation by these O-acyl salicylates was investigated. It is hypothesised that if the acylation were reversible, then the O-acyl moieties might be removed by platelet washing. Consequently, the washed platelets would become susceptible to aggregation by arachidonic acid.
A platelet-washing technique, ADGS (albumin density gradient separation) similar to one used by Spriggs and Alexander (Spriggs, 1960, Nature 188 863), was employed for this purpose. The principle underlying ADGS is simply that of centrifuging platelets into a continuous density gradient produced by mixing the interface between platelet-rich plasma and 40-45% bovine serum albumin. Thereby the platelets are gently sedimented into a zone with a specific gravity equal to their own, and they are protected by the cushion of albumin from disruptive squashing on the hard surface of the centrifuge tube.
Flat-bottomed, polystyrene tubes of 10 mL capacity with stopper were used for platelet washing by ADGS. Pasteur pipettes were siliconised and used for transferring plasma and wash fluid. Stirring rods were made from Pasteur pipettes by heating the tips, forming a right-angle ben approximately 1 cm long and then siliconised. […]

For series [3] the following is noted: at 25° C. (Foye 1989); cited from earlier work.

For orientation: solubility means the dissolved amount per volume that the medium holds. As a reminder, the pKa is the pH at which an ionisable group is half protonated. Consider “O-acetylsalicylic acid [Compound C2SA, reference compound]”, for which the solubility in series [1] (at 25° C., The Merck Index 1983) was 18.5 mM. In series [1] (water, 25° C., literature value (Merck Index)), the Maximum solubility was 18.5 mM. Also, the “Platelet response to arachidonic acid after pretreatment (platelet washing study)” value in series [2] was “non-reversibly inhibited; also recorded: still refractory to arachidonic acid”. Besides, the pKa in series [3] is reported as 3.5.

Take `CCCCCC(=O)Oc1ccccc1C(=O)O` [Compound C6SA, n-hexanoylsalicylic acid]: the “Platelet response to arachidonic acid after pretreatment (platelet washing study)” value in series [2] is on record as “non-reversibly inhibited; also recorded: still refractory to arachidonic acid”.

(Values after US6593365B1, “Diflunisal esters and related compounds” (The University of Queensland, priority 1997, dated 2003).)
